Data set [1] deals with human erythrocytes. In words: Hemolytic activity (hemoglobin release). In kind it is cell-based. As to the method: The hemolytic activity of the peptides was evaluated by determining hemoglobin release of suspensions of fresh human erythrocytes at 405 nm. Human red blood cells (Deutscher Blutspendedienst, München, Germany) were centrifuged and washed three times with Tris-buffer (10 mM Tris, 150 mM NaCl, pH 7.4). 80 µl of cells (1.5×10^9 cells/ml) were added to 20 µl of the peptide solution in 96-well plates and incubated for 45 min at 37°C. Final peptide concentrations were 0, 20, 50, 100 and 200 µg/ml. After centrifugation (1,500 g, 5 min, 20°C) 30 µl aliquots of the supernatant were transferred to 96-well plates containing 100 µl of water and released hemoglobin was determined using a microplate reader (OD405 nm). 100% hemolysis was determined with 2% SDS.

Data set [2] relates to Arabidopsis mesophyll protoplasts. Description: Phytotoxicity on plant protoplasts. As to conditions: 1 h incubation, light microscope; for Phytotoxicity: peptide concentration where protoplasts show first signs of cytoplasmic degradation: 0, 10, 100, 200 µg/ml. In kind it is cell-based. Here is the method:
Phytotoxicity was measured on Arabidopsis mesophyll protoplasts prepared from leaves as described in [80]. 80 µl protoplast suspension containing about 5000 protoplasts were incubated with 20 µl peptide solution. Final peptide concentrations were 0, 10, 100 and 200 µg/ml. The phytotoxic effect of antimicrobial peptides was observed after 1 h with a light microscope. Hints to cell death are loss of spherical shape, chloroplast release and/or agglomeration of protoplasts.

For data set [3], the system named is Clavibacter michiganensis ssp. michiganensis. The conditions noted are these: LB-medium, 27°C.
Data set [4] has as its system Pectobacterium carotovorum ssp. carotovorum. The conditions noted are these: LB-medium, 27°C.
The next data set deals with Xanthomonas vesicatoria. As to conditions: LB-medium, 27°C.
For data set [5], the system named is Pseudomonas syringae pv. tomato. As to conditions: LB-medium, 27°C.
The subject of data set [6] is Pseudomonas syringae pv. syringae. As to conditions: LB-medium, 27°C.
The next data set deals with Pseudomonas corrugata. The conditions noted are these: LB-medium, 27°C.
The subject of data set [7] is P. syringae pv. tomato DC3000. The conditions noted are these: peptide concentrations up to 100 µg/ml, sprayed; cfu 30 min after treatment.
For a further data set, the system named is P. syringae. The conditions noted are these: Table S5; 10 µg/ ml peptide; organism P. syringae pv syrimgae [sic].
For a further data set, the system named is tested plant pathogens. In words: Microdilution assay, activity summarised over several tested plant pathogens. In kind it is cell-based. As to conditions: for active concentrations (MIC): statement over some / the majority of the tested plant pathogens or bacteria. As to the method:
In-vitro inhibition assays were performed in sterile flat-bottom 96-well polypropylene-plates (Greiner bio-one, Frickenhausen, Germany). 10 µl (antibacterial assay) or 20 µl (antifungal assay) of each concentration were loaded per well. Fresh bacterial colonies were transferred into LB-medium, grown to an OD600 nm of 0.08–0.1 and diluted 1∶100 with medium. 90 µl of this suspension containing about 10^5 CFU/ml of bacteria were added to each well resulting in final peptide concentrations from 0 to 100 µg/ml. After incubation at 27°C for 1–2d bacterial growth was analyzed by measuring the OD590 nm using a Tecan Genios microplate reader (Crailsheim, Germany).
Spores of plant pathogenic fungi were collected by washing sporulating cultures with water. Spore concentration was determined by haematocytometer and adjusted to 1.5–2×10^3 spores/ml in 2% malt extract medium. 80 µl of fungal spores were added per well resulting in final peptide concentrations from 0 to 100 µg/ml. After incubation at room temperature for 3d on a rotary shaker (300 rpm), fungal growth was determined by measuring the OD590 nm (Alternaria sp.) or by visual screening of the plates (Botrytis sp., Cladosporium sp.). The lowest peptide concentration, where no visible microbial growth could be detected, was determined for each organism-peptide combination and referred to as the minimal inhibitory concentration (MIC). At least two independent replicates were performed.

The subject of another data set is Botrytis cinerea. The conditions noted are these: 2% malt extract medium, 1.5–2×10^3 spores/ml, room temperature, 3d, visual screening; lowest concentration with no visible growth; at least two independent replicates.
A further data set deals with Alternaria alternata. The conditions noted are these: 2% malt extract medium, 1.5–2×10^3 spores/ml, room temperature, 3d, OD590 nm; lowest concentration with no visible growth; at least two independent replicates.
The test system of another data set is Cladosporium herbarum. As to conditions: 2% malt extract medium, 1.5–2×10^3 spores/ml, room temperature, 3d, visual screening; lowest concentration with no visible growth; at least two independent replicates.
The subject of another data set is Fusarium solani. As to conditions: 2% malt extract medium, room temperature, 3d; concentration range 1 to 64 µg/ml.
In data set [8] the test system is human erythrocytes. As to conditions: cited from earlier work.
[9] abbreviates: about 10^5 CFU/ml, 1–2d, OD590 nm, at least two independent replicates.

“And” between values parts separate entries of the source, which are not always exact repeats. Equal entries are not always repeated. Where two headings read alike, the source gives them in different places. Ends that are not written are not given here.

With LRFLKKALKKLF-NH2 [SP10-2], the “Hemolytic activity: peptide concentration leading to 25% hemoglobin release from human blood cells” value with human erythrocytes [1] was over 200 µg/mL. Further, the “phytotoxicity to plant protoplasts (in words)” value (shortened to “phytotoxicity … (in words)”) in data set [2] was “very low phytotoxicity”. Moreover, the “Phytotoxicity: peptide concentration where protoplasts show first signs of cytoplasmic degradation” value (from here on “Phytotoxicity … of cytoplasmic degradation”) in data set [2] amounted to 200 µg/mL. Besides, the MIC in data set [3] (Table 4, incubation period 2d) came out at 0.25 µg/mL; in [4] (Table 4, incubation period 1d) it was 1.0 µg/mL; against Xanthomonas vesicatoria (Table 4, incubation period 2d) it was 0.25 µg/mL; in data set [5] (Table 4, incubation period 1d) it was 0.5 µg/mL; in [6] (Table 4, incubation period 1d) it was 0.1 µg/mL; in the data set on Pseudomonas corrugata (Table 4, incubation period 2d), 0.5 µg/mL. Besides, in data set [7], the “growth inhibition on tomato leaves” value is listed as 90%. Further, the “Growth inhibition of bacteria/fungi on leaf surface” value (shortened to “Growth inhibition of bacteria/fungi”) in the data set on P. syringae is 50%.
In the case of RKRAARLLKRLV-NH2 [SP2], in the data set with tested plant pathogens, the “active concentrations (MIC)” value is 1 to 5 µg/mL and 1 to 2 µg/mL. In addition, the MIC was over 100 µg/mL in the data set with Botrytis cinerea; over 100 µg/mL against Alternaria alternata; 20 µg/mL against Cladosporium herbarum; 2 µg/mL in [3] (setting [9]); over 40 µg/mL in [4] (setting [9]); 2 µg/mL in the data set with Xanthomonas vesicatoria (setting [9]). Besides, the MIC in [5] (setting [9]) came to 2 µg/mL; in data set [6] (setting [9]), 2 µg/mL; against Pseudomonas corrugata (setting [9]), 5 µg/mL.
KRKLIFLAAFLAALALFKKR-NH2 [SP15]: the “phytotoxicity … (in words)” value in data set [2] is “highly ph ytotoxic”. Moreover, the MIC against Botrytis cinerea was over 100 µg/mL; in the data set with Alternaria alternata it was over 100 µg/mL; against Cladosporium herbarum, 40 µg/mL; in data set [3] (setting [9]), 2.5 µg/mL; in data set [4] (setting [9]), over 40 µg/mL; against Xanthomonas vesicatoria (setting [9]), 20 µg/mL. Besides, the MIC in data set [5] (setting [9]) was 40 µg/mL; in data set [6] (setting [9]), over 40 µg/mL; with Pseudomonas corrugata (setting [9]) it was over 40 µg/mL.
For “GIGKFLHSAKKFGKAFVGEIMNS [Magainin II, reference compound]”, the “active concentrations (MIC)” value in the data set with tested plant pathogens fell in the range of 1 to 8 µg/mL. Moreover, the MIC in the data set on Botrytis cinerea was 64 µg/mL; in the data set with Alternaria alternata, over 64 µg/mL; against Cladosporium herbarum it was 64 µg/mL; in the data set with Fusarium solani, 2 µg/mL; in [3] (setting [9]), 32 µg/mL; in [4] (setting [9]), over 64 µg/mL. For the same compound, the MIC was 8 µg/mL against Xanthomonas vesicatoria (setting [9]), 32 µg/mL in data set [5] (setting [9]), over 64 µg/mL in data set [6] (setting [9]) and 32 µg/mL in the data set with Pseudomonas corrugata (setting [9]). The Hemolytic activity in the data set on human erythrocytes [8] (Table S5, ref Zasloff, 1987) was 5 µg/mL.
For the compound LRIIKKILKKLI-NH2 [SP10-5], in [2], the “phytotoxicity … (in words)” value is “very low phytotoxicity”. In data set [2], the “Phytotoxicity … of cytoplasmic degradation” value was 200 µg/mL. Besides, the MIC in data set [3] (Table 4, incubation period 2d) worked out at 0.5 µg/mL; in [4] (Table 4, incubation period 1d) it was 2.5 µg/mL; in the data set on Xanthomonas vesicatoria (Table 4, incubation period 2d) it was 0.25 µg/mL; in [5] (Table 4, incubation period 1d), 0.25 µg/mL; in [6] (Table 4, incubation period 1d) it was 0.5 µg/mL; with Pseudomonas corrugata (Table 4, incubation period 2d), 0.5 µg/mL. In data set [7], the “growth inhibition on tomato leaves” value is listed as 90%. For the same compound, in the data set on P. syringae, the “Growth inhibition of bacteria/fungi” value stood at 70%.
RKKRLKLLKRLL-NH2 [SP1-1]: the “phytotoxicity … (in words)” value in [2] is “very low phytotoxicity”. Further, in [2], the “Phytotoxicity … of cytoplasmic degradation” value was 200 µg/mL. Further, the minimum inhibitory concentration (MIC) in data set [3] (Table 4, incubation period 2d) is 2.5 µg/mL; in [4] (Table 4, incubation period 1d), over 10 µg/mL; against Xanthomonas vesicatoria (Table 4, incubation period 2d), 0.1 µg/mL; in data set [6] (Table 4, incubation period 1d) it was 0.1 µg/mL; in the data set on Pseudomonas corrugata (Table 4, incubation period 2d), under 0.1 µg/mL. Besides, the “growth inhibition on tomato leaves” value in [7] was 90%. Moreover, the “Growth inhibition of bacteria/fungi” value with P. syringae was 40%.
RKKRLKLLKRLV-NH2 [SP1]: the “active concentrations (MIC)” value in the data set on tested plant pathogens is 1 to 5 µg/mL and 1 to 2 µg/mL. Besides, the MIC against Botrytis cinerea is over 100 µg/mL; against Alternaria alternata, over 100 µg/mL; in the data set on Cladosporium herbarum, 10 µg/mL.
LKALRKALKHLA-NH2 [SP12]: the “Hemolytic activity: peptide concentration leading to 25% hemoglobin release from human blood cells” value with human erythrocytes [1] (45 min, 37°C, Tris-buffer pH 7.4, 0, 20, 50, 100, 200 µg/ml, OD405 nm, 100% = 2% SDS, >200 = slight hemolytic activity at 200 µg/ml below threshold) is over 200 µg/mL. Besides, the MIC was over 100 µg/mL against Botrytis cinerea; over 100 µg/mL in the data set with Alternaria alternata; 20 µg/mL in the data set with Cladosporium herbarum; over 40 µg/mL in data set [3] (setting [9]); over 40 µg/mL in data set [4] (setting [9]); 20 µg/mL with Xanthomonas vesicatoria (setting [9]). Moreover, the MIC in [5] (setting [9]) is 2.5 µg/mL; in data set [6] (setting [9]) it was 10 µg/mL; against Pseudomonas corrugata (setting [9]) it was over 40 µg/mL.
In turn, `CC(C)C[C@H](NC(=O)[C@H](CCCNC(=N)N)NC(=O)CNC(=O)CNC(=O)[C@@H](N)CCCNC(=N)N)C(=O)N[C@H]1CSSC[C@@H](C(=O)N[C@H](C(=O)NCC(=O)N[C@@H](CCCNC(=N)N)C(N)=O)C(C)C)NC(=O)[C@H](C(C)C)NC(=O)[C@@H]2CSSC[C@H](NC(=O)[C@H](Cc3ccc(O)cc3)NC1=O)C(=O)N[C@@H](CCCNC(=N)N)C(=O)N[C@@H](CCCNC(=N)N)C(=O)N[C@@H](CCCNC(=N)N)C(=O)N[C@@H](Cc1ccccc1)C(=O)N2` [Protegrin I, reference compound] registered a Hemolytic activity: peptide concentration leading to 25% hemoglobin release of 50 µg/mL. This compound also registered a hemoglobin release with human erythrocytes [1] (50 µg/ml peptide, human red blood cells) of 25%. For the same compound, the “Activity range: peptide concentrations necessary to inhibit growth of the listed bacteria strains” value in the data set on tested plant pathogens (Table S5, strains listed under strain specificity) was 1 to 8 µg/mL. Besides, the Hemolytic activity in the data set on human erythrocytes [8] is under 80 µg/mL.
RKRFARFAKRAV-NH2 [SP3]: the minimum inhibitory concentration (MIC) against Botrytis cinerea is over 100 µg/mL; against Alternaria alternata, over 100 µg/mL; against Cladosporium herbarum, 40 µg/mL; in [3] (setting [9]), 20 µg/mL; in data set [4] (setting [9]), over 40 µg/mL; against Xanthomonas vesicatoria (setting [9]) it was over 40 µg/mL. Besides, the figures for the MIC (in data set [5] (setting [9]); in data set [6] (setting [9]); in the data set with Pseudomonas corrugata (setting [9])) were 5 µg/mL, over 40 µg/mL and over 40 µg/mL, respectively.
LRKLKKILKKLF-NH2 [SP10-10]: the “Hemolytic activity: peptide concentration leading to 25% hemoglobin release from human blood cells” value in the data set with human erythrocytes [1] (Table 4, 45 min, 37°C, highest concentration tested 200 µg/ml) is “– (no value indicates none detectable hemolytic activity up to the highest concentration tested)”. The minimal inhibitory concentration (MIC) in data set [3] (Table 4, incubation period 2d) worked out at 0.25 µg/mL; in data set [4] (Table 4, incubation period 1d) it was 2.5 µg/mL; against Xanthomonas vesicatoria (Table 4, incubation period 2d), 0.1 µg/mL; in data set [5] (Table 4, incubation period 1d) it was 0.5 µg/mL; in [6] (Table 4, incubation period 1d) it was 0.25 µg/mL; in the data set on Pseudomonas corrugata (Table 4, incubation period 2d), 0.25 µg/mL.
